Laboratory results from patent US5037980A, “Phenyl imidazo[1,2-a]pyrimidines” (American Cyanamid Company, priority 1988, dated 1991).

Experiments:
[1] = system: spontaneously hypertensive rats; assay: Mean arterial blood pressure in spontaneously hypertensive rats; format: in vivo, Okamoto strain); conditions: 100 mg/kg by gavage at 0 and 24 hours, measured at 28 hours, 1 rat; average of SHR used 170+1.5 mm of mercury
Description: The novel compounds of the present invention were tested for hypotensive activity by the method of P. S. Chan and D. W. Poorwin, Clin. Exptl. Hypertension, 1 (6): 817 (1979). Male, 16-20 week old, spontaneously hypertensive rats (SHR) of the Okamoto strain, from Taconic Farms, Germantown, New York, having an average mean arterial blood pressure of 170+1.5 mm of mercury are used in the test. One male adult SHR weighing about 300 g is dosed by gavage with a test compound, suspended in 2% pre-boiled starch at a concentration of 50 mg/ml, at a dose of 100 mg/kg of body weight or less, with 0.9% sodium chloride loading at a dose of 25 ml/kg of body weight, at zero hours. A second indentical dose of the test compound, without sodium chloride loading in given 24 hours later. At 28 hours after the initial dose the mean arterial blood pressure is measured by the method of Chan and Poorwin vide supra. The results of this test on representative compounds of the present invention appear below in Table IV.

brain-specific receptors = assay: Inhibition of the binding of 3H-benzodiazepine to brain-specific receptors of rats; design: species or system rat (Wistar); conditions: 3H-flunitrazepam, rat whole cortex P2-synaptosomal fraction, pH 7.5, 30 minutes, 0° C.; test compound concentration not given
rats = assay: Non-conditioned passive avoidance test in rats; format: in vivo, rat (Wistar); design: key: Active: considered active if the number of shocks received by the test group is significantly higher than the control group by the Mann-Whitney U test; conditions: oral or i.p., 30 or 60 minutes before test
Description: Another test used to assess anti-anxiety effects is a non-conditioned passive avoidance procedure described by J. R. Vogel, B. Beer and D. E. Clody. "A Simple and Reliable Conflict Procedure for Testing Anti-Anxiety Agents", Psychopharmacologia, 21, 1-7 (1971). A conflict situation is induced in rats by a modification of this method.
Groups of 8 naive, Wistar strain male rats weighing 200-240 g each were deprived of water for 48 hours. The test compounds were administered in single or graded, oral or intraperitoneal doses, suspended in distilled water and one drop of polysorbate 80. Control animals received the vehicle alone. At 30 or 60 minutes each rat was placed in an individual clear plexiglass chamber. Tap water was available ad libitum from a nipple located in a black plexiglass box off the main chamber. A 0.7 milliampere AC shocking current was established between the stainless steel grid floor and the tap. After 20 licks of non-shocked drinking, a 2 second shocking current was administered to the rat. This ratio of 20 licks of non-shocked drinking followed by a 2 second shock was continued for a total of 3 minutes. The number of shocks taken by each rat during the 3 minute interval was recorded and compared to a control group.

[2] = system: clonic seizures caused by pentylenetetrazole in rats; assay: Protection against clonic seizures caused by pentylenetetrazole in rats; format: in vivo, rat; conditions: oral or i.p., pentylenetetrazole 23 mg/kg i.v. at 30 or 60 minutes
Description: The anti-anxiety properties of the novel compounds of the present invention have been established in a test which indicates anxiolytic activity by the measure of protection from convulsions resulting from the administration of pentylenetetrazole. Single or graded dose levels of the test compounds were administered orally or intraperitoneally in a 2% starch vehicle containing 0.5% v/v polyethylene glycol and one drop of polysorbate 80 or distilled water and one drop of polysorbate 80 to groups of at least 4 rats. At 30 or 60 minutes, the rats were treated intravenously with pentylenetetrazole at a dose of 23 mg/kg of body weight. This dose is estimated to cause clonic seizures in 99% of unprotected rats. It has been reported [R. T. Hill and D. H. Tedeschi, "Animal Testing and Screening Procedures in Evaluating Psychotropic Drugs" in "An Introduction to Psychopharmacology", Eds. R. R. Rech and K. E. Moore, Raven Press, New York, pp 237-288 (1971)] that there is a high degree of correlation between antagonism of pentylenetetrazole seizures in rats and anti-anxietyeffects in higher warm-blooded animals.

Row | Structure (SMILES) | Mean Arterial Blood Pressure [1] | % Inhibition of 3H-benzodiazepine binding (brain-specific receptors) [%] | further results
1 | Cc1cc(-c2cccc(C(F)(F)F)c2)n2ccnc2n1 [7-Methyl-5-[3-(trifluoromethyl)phenyl]imidazo[1,2-a]pyrimidine] | 127 | 42 | –
2 | Cc1cc(-c2ccccc2F)n2ccnc2n1 [5-(2-Fluorophenyl)-7-methyl imidazo[1,2-a]pyrimidine] | – | 13 | –
3 | Cc1cc(-c2ccccc2)n2ccnc2n1 [7-Methyl-5-phenylimidazo[1,2-a]-pyrimidine] | – | 43 | –
4 | Cc1cc(-c2ccc(Cl)c(Cl)c2)n2ccnc2n1 [5-(3,4-Dichlorophenyl)-7-methyl-imidazo-[1,2-a]pyrimidine] | 119 | 22 | –
5 | Clc1ccc(-c2ccnc3nccn23)c(Cl)c1 [5-(2,4-Dichlorophenyl)imidazo-[1,2-a]pyrimidine] | 111 | 11 | –
6 | Clc1cccc(-c2ccnc3nccn23)c1 [5-(3-Chlorophenyl)imidazo[1,2-a]-pyrimidine] | 146 | 37 | Result (non-conditioned passive avoidance) (rats; dose 25.0 mg/kg): Active; % of Rats Protected ([2]; dose 25 mg/kg): 50%
7 | COc1cc(-c2cc(C)nc3nccn23)cc(OC)c1OC [7-Methyl-5-(3,4,5-trimethoxy-phenyl)imidazo[1,2-a]pyrimidine] | – | 10 | Result (non-conditioned passive avoidance) (rats; dose 35.0 mg/kg): Active
8 | Fc1ccccc1-c1ccnc2nccn12 [5-(2-Fluorophenyl)imidazo[1,2-a]-pyrimidine] | 121 | 49 | –
9 | Brc1ccc(-c2ccnc3nccn23)cc1 [5-(4-Bromophenyl)imidazo[1,2-a]-pyrimidine] | 97 | – | –
10 | FC(F)(F)c1cccc(-c2ccnc3nccn23)c1 [5-(α,α,α-Trifluoro-m-tolyl)imidazo[1,2-a]pyrimidine] | 126 | 46 | Result (non-conditioned passive avoidance) (rats; dose 25.0 mg/kg): Active; % of Rats Protected ([2]; dose 50 mg/kg): 100%
11 | COc1ccc(-c2cc(C)nc3nccn23)cc1OC [5-(3,4-Dimethoxyphenyl)-7-methyl-imidazo[1,2-a]pyrimidine] | 148 | 46 | –
12 | COc1cc(-c2ccnc3nccn23)cc(OC)c1OC [5-(3,4,5-Trimethoxyphenyl)imidazo-[1,2-a]pyrimidine] | 147 | – | % of Rats Protected ([2]; dose 25 mg/kg): 75%
